Measurements as given in PubChem BioAssay (NCI).
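Five concentrations, 48 hours, 96-well plates. TGI: concentration producing complete growth inhibition.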

Columns and labels:
Experiment in all cases: NCI tumour cell line growth inhibition, 48 h
U251 CNS = tested on: U251 CNS
ACHN renal = tested on: ACHN renal
A498 renal = tested on: A498 renal
SK-MEL-5 melanoma = tested on: SK-MEL-5 melanoma
PC-3 prostate = tested on: PC-3 prostate
EKVX NSCLC = tested on: EKVX NSCLC
OVCAR-5 ovarian = tested on: OVCAR-5 ovarian
HCT-116 colon = tested on: HCT-116 colon
SK-MEL-28 melanoma = tested on: SK-MEL-28 melanoma
NCI/ADR-RES ovarian = tested on: NCI/ADR-RES ovarian
OVCAR-4 ovarian = tested on: OVCAR-4 ovarian
NCI-H522 lung = tested on: NCI-H522 lung
SF-295 CNS = tested on: SF-295 CNS
HL-60(TB) leukemia = tested on: HL-60(TB) leukemia
MALME-3M melanoma = tested on: MALME-3M melanoma
KM12 colon = tested on: KM12 colon
SNB-19 CNS = tested on: SNB-19 CNS
HCT-15 colon = tested on: HCT-15 colon
HOP-92 NSCLC = tested on: HOP-92 NSCLC
HOP-62 NSCLC = tested on: HOP-62 NSCLC
UACC-62 melanoma = tested on: UACC-62 melanoma
SK-OV-3 ovarian = tested on: SK-OV-3 ovarian
CCRF-CEM leukemia = tested on: CCRF-CEM leukemia
OVCAR-3 ovarian = tested on: OVCAR-3 ovarian
BT-549 breast = tested on: BT-549 breast
HCC-2998 colon = tested on: HCC-2998 colon
DU-145 prostate = tested on: DU-145 prostate
MDA-MB-231 breast = tested on: MDA-MB-231 breast
MCF7 breast = tested on: MCF7 breast
HT29 colon = tested on: HT29 colon
SN12C renal = tested on: SN12C renal
T-47D breast = tested on: T-47D breast
M14 melanoma = tested on: M14 melanoma
UO-31 renal = tested on: UO-31 renal
TK-10 renal = tested on: TK-10 renal
SK-MEL-2 melanoma = tested on: SK-MEL-2 melanoma
CAKI-1 renal = tested on: CAKI-1 renal
LOX IMVI melanoma = tested on: LOX IMVI melanoma
786-0 renal = tested on: 786-0 renal
SW-620 colon = tested on: SW-620 colon
MDA-MB-435 = tested on: MDA-MB-435
COLO 205 colon = tested on: COLO 205 colon
RXF 393 renal = tested on: RXF 393 renal
OVCAR-8 ovarian = tested on: OVCAR-8 ovarian
SF-268 CNS = tested on: SF-268 CNS
MDA-N = tested on: MDA-N
IGROV1 ovarian = tested on: IGROV1 ovarian
UACC-257 melanoma = tested on: UACC-257 melanoma
HS 578T breast = tested on: HS 578T breast
NCI-H460 lung = tested on: NCI-H460 lung
RPMI-8226 leukemia = tested on: RPMI-8226 leukemia
SNB-75 CNS = tested on: SNB-75 CNS
NCI-H23 lung = tested on: NCI-H23 lung
A549 NSCLC = tested on: A549 NSCLC
SF-539 CNS = tested on: SF-539 CNS
MOLT-4 leukemia = tested on: MOLT-4 leukemia
SR leukemia = tested on: SR leukemia
K-562 leukemia = tested on: K-562 leukemia
NCI-H226 lung = tested on: NCI-H226 lung

With OCCNc1ncnc2c1ncn2C1OC(CO)C(O)C1O (stereo unspecified) the TGI (U251 CNS) was greater than 100 µM, the TGI (ACHN renal) was greater than 100 µM and the TGI (A498 renal) was greater than 100 µM. For the same molecule, the TGI (SK-MEL-5 melanoma) was greater than 100 µM, the TGI (PC-3 prostate) was greater than 100 µM and the TGI (EKVX NSCLC) was greater than 100 µM. The TGI (OVCAR-5 ovarian) was greater than 100 µM, the TGI (HCT-116 colon) was greater than 100 µM and the TGI (SK-MEL-28 melanoma) was greater than 100 µM. The TGI (NCI/ADR-RES ovarian) was greater than 100 µM, the TGI (OVCAR-4 ovarian) was greater than 100 µM and the TGI (NCI-H522 lung) was greater than 100 µM. The TGI (SF-295 CNS) was greater than 100 µM, the TGI (HL-60(TB) leukemia) was greater than 100 µM and the TGI (MALME-3M melanoma) was greater than 100 µM. It also gave a TGI (KM12 colon) greater than 100 µM, a TGI (SNB-19 CNS) greater than 100 µM and a TGI (HCT-15 colon) greater than 100 µM. The TGI (HOP-92 NSCLC) was greater than 100 µM, the TGI (HOP-62 NSCLC) was greater than 100 µM and the TGI (UACC-62 melanoma) was greater than 100 µM. It also gave a TGI (SK-OV-3 ovarian) greater than 100 µM, a TGI (CCRF-CEM leukemia) greater than 100 µM and a TGI (OVCAR-3 ovarian) greater than 100 µM. The TGI (BT-549 breast) was greater than 100 µM, the TGI (HCC-2998 colon) was greater than 100 µM and the TGI (DU-145 prostate) was 67.7 µM. It also gave a TGI (MDA-MB-231 breast) of 89.4 µM, a TGI (MCF7 breast) greater than 100 µM and a TGI (HT29 colon) greater than 100 µM. The TGI (SN12C renal) was greater than 100 µM, the TGI (T-47D breast) was greater than 100 µM and the TGI (M14 melanoma) was greater than 100 µM. It also gave a TGI (UO-31 renal) greater than 100 µM, a TGI (TK-10 renal) greater than 100 µM and a TGI (SK-MEL-2 melanoma) greater than 100 µM. It also gave a TGI (CAKI-1 renal) greater than 100 µM, a TGI (LOX IMVI melanoma) greater than 100 µM and a TGI (786-0 renal) greater than 100 µM. The TGI (SW-620 colon) was greater than 100 µM, the TGI (MDA-MB-435) was greater than 100 µM and the TGI (COLO 205 colon) was greater than 100 µM. For the same molecule, the TGI (RXF 393 renal) was greater than 100 µM, the TGI (OVCAR-8 ovarian) was greater than 100 µM and the TGI (SF-268 CNS) was greater than 100 µM. For the same molecule, the TGI (MDA-N) was greater than 100 µM, the TGI (IGROV1 ovarian) was greater than 100 µM and the TGI (UACC-257 melanoma) was greater than 100 µM. The TGI (HS 578T breast) was greater than 100 µM, the TGI (NCI-H460 lung) was greater than 100 µM and the TGI (RPMI-8226 leukemia) was greater than 100 µM. For the same molecule, the TGI (SNB-75 CNS) was greater than 100 µM, the TGI (NCI-H23 lung) was greater than 100 µM and the TGI (A549 NSCLC) was greater than 100 µM. For the same molecule, the TGI (SF-539 CNS) was greater than 100 µM.

With CC1=CC2=C(C(N)=O)C(=O)OC2(C)C(c2ccccc2)C1 (stereo unspecified) the TGI (U251 CNS) was greater than 100 µM, the TGI (ACHN renal) was greater than 100 µM and the TGI (A498 renal) was greater than 100 µM. For the same molecule, the TGI (PC-3 prostate) was greater than 100 µM, the TGI (MOLT-4 leukemia) was greater than 100 µM and the TGI (EKVX NSCLC) was greater than 100 µM. For the same molecule, the TGI (OVCAR-5 ovarian) was greater than 100 µM, the TGI (HCT-116 colon) was greater than 100 µM and the TGI (SK-MEL-28 melanoma) was greater than 100 µM. The TGI (NCI/ADR-RES ovarian) was greater than 100 µM, the TGI (SR leukemia) was greater than 100 µM and the TGI (OVCAR-4 ovarian) was greater than 100 µM. The TGI (NCI-H522 lung) was greater than 100 µM, the TGI (SF-295 CNS) was greater than 100 µM and the TGI (HL-60(TB) leukemia) was greater than 100 µM. The TGI (MALME-3M melanoma) was greater than 100 µM, the TGI (KM12 colon) was greater than 100 µM and the TGI (SNB-19 CNS) was greater than 100 µM. For the same molecule, the TGI (HCT-15 colon) was greater than 100 µM, the TGI (HOP-92 NSCLC) was greater than 100 µM and the TGI (HOP-62 NSCLC) was greater than 100 µM. The TGI (UACC-62 melanoma) was greater than 100 µM, the TGI (K-562 leukemia) was greater than 100 µM and the TGI (SK-OV-3 ovarian) was greater than 100 µM. The TGI (OVCAR-3 ovarian) was greater than 100 µM, the TGI (BT-549 breast) was greater than 100 µM and the TGI (DU-145 prostate) was greater than 100 µM. The TGI (MDA-MB-231 breast) was greater than 100 µM, the TGI (MCF7 breast) was greater than 100 µM and the TGI (HT29 colon) was greater than 100 µM. The TGI (SN12C renal) was greater than 100 µM, the TGI (M14 melanoma) was greater than 100 µM and the TGI (UO-31 renal) was greater than 100 µM. For the same molecule, the TGI (TK-10 renal) was greater than 100 µM, the TGI (SK-MEL-2 melanoma) was greater than 100 µM and the TGI (LOX IMVI melanoma) was greater than 100 µM. The TGI (786-0 renal) was greater than 100 µM, the TGI (SW-620 colon) was greater than 100 µM and the TGI (MDA-MB-435) was greater than 100 µM. For the same molecule, the TGI (NCI-H226 lung) was greater than 100 µM, the TGI (OVCAR-8 ovarian) was greater than 100 µM and the TGI (SF-268 CNS) was greater than 100 µM. For the same molecule, the TGI (MDA-N) was greater than 100 µM, the TGI (IGROV1 ovarian) was greater than 100 µM and the TGI (UACC-257 melanoma) was greater than 100 µM. For the same molecule, the TGI (HS 578T breast) was greater than 100 µM, the TGI (NCI-H460 lung) was greater than 100 µM and the TGI (RPMI-8226 leukemia) was greater than 100 µM. The TGI (SNB-75 CNS) was greater than 100 µM, the TGI (A549 NSCLC) was greater than 100 µM and the TGI (SF-539 CNS) was greater than 100 µM.
